For one compound, IC50 results are on record in paper PMC2788200 (Nutrition Research and Practice, 2008).

This test deals with T1, 10-formyltetrahydrofolate dehydrogenase (FDH) (Rattus norvegicus, UniProt P28037).
T1 sequence (P28037 1-902): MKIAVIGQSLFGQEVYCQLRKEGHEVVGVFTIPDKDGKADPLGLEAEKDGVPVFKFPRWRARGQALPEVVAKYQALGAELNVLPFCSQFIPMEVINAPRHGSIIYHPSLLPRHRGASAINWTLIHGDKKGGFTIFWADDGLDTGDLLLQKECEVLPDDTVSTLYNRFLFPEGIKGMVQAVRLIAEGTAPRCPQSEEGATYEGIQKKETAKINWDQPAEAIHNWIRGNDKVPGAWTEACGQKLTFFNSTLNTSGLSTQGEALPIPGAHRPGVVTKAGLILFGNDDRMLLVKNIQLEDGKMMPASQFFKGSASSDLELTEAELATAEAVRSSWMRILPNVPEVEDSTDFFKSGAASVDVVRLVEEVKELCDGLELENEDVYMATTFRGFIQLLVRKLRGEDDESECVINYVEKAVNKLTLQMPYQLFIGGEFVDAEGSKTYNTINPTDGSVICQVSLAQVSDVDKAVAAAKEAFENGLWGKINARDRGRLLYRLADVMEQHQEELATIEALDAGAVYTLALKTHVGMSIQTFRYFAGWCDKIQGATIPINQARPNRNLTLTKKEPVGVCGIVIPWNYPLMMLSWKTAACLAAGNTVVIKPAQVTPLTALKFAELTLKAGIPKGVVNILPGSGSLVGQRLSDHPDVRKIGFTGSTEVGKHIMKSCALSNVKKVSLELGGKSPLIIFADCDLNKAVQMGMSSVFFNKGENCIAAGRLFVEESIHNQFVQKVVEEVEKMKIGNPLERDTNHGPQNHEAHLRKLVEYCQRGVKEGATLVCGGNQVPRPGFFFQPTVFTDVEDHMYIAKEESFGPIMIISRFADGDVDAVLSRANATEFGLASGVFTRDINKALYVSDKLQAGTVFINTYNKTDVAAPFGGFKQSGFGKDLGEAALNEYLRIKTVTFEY
The test is described as follows: THF formation at […] nm with NADP+, hydrolytic rate subtracted. The test is classed as biochemical.

In general, IC50 refers to the midpoint of a concentration-inhibition curve. High values mean a need for much substance, low ones inhibition by little substance. In turn, `CC=O` [acetaldehyde] had an IC50 of 4 mM. This counts as millimolar.
